Tested on: RSV strain A2
Assay: RSV antiviral activity, in vitro cytoprotection assay in Hep2 cells
Type: cell-based, Respiratory Syncytial Virus (RSV)
Details: 0.5 μM compound, RSV-induced cytopathic effect in Hep2 cells, % inhibition calculated from fitted 4-parameter dose response curve, normalized to 0% and 100%; for inhibition at 0.5 µM: human respiratory syncytial virus, HEp-2, read-out: Percent inhibition at 0.5 μM
Procedure: Antiviral activity against RSV was determined using an in vitro cytoprotection assay in Hep2 cells. […] The method used was similar to methods previously described in published literature (Chapman et al., Antimicrob Agents Chemother. 2007, 51(9):3346-53.)
Hep2 cells were obtained from ATCC (Manassas, Va.) and maintained in MEM media supplemented with 10% fetal bovine serum and penicillin/streptomycin. Cells were passaged twice a week and kept at subconfluent stage. Commercial stock of RSV strain A2 (Advanced Biotechnologies, Columbia, Md.) was titered before compound testing to determine the appropriate dilution of the virus stock that generated desirable cytopathic effect in Hep2 cells.
For antiviral tests, Hep2 cells were seeded into 96-well plates 24 hours before the assay at a density of 3,000 cells/well. On a separate 96 well plate, compounds to be tested were serially diluted in cell culture media. Eight concentrations in 3-fold serial dilution increments were prepared for each tested compound and 100 uL/well of each dilution was transferred in duplicate onto plates with seeded Hep2 cells. Subsequently, appropriate dilution of virus stock previously determined by titration was prepared in cell culture media and 100 uL/well was added to test plates containing cells and serially diluted compounds. Each plate included three wells of infected untreated cells and three wells of uninfected cells that served as 0% and 100% virus inhibition control, respectively. Following the infection with RSV, testing plates were incubated for 4 days in a tissue culture incubator. After the incubation, RSV-induced cytopathic effect was determined using a Cell TiterGlo reagent (Promega, Madison, Wis.) followed by a luminescence read-out. The percentage inhibition was calculated for each tested concentration relative to the 0% and 100% inhibition controls and the EC50 value for each compound was determined by non-linear regression as a concentration inhibiting the RSV-induced cytopathic effect by 50%. Ribavirin (purchased from Sigma, St. Louis, Mo.) was used as a positive control for antiviral activity.
Compounds were also tested for antiviral activity against RSV in Hep2 cells using a 384 well format. Compounds were diluted in DMSO using a 10-step serial dilution in 3-fold increments via automation in 4 adjacent replicates each. Eight compounds were tested per dilution plate. 0.4 uL of diluted compounds were then stamped via Biomek into 384-well plates (Nunc 142761 or 164730 w/lid 264616) containing 20 μL of media (Mediatech Inc. MEM supplemented with Glutamine, 10% FBS and Pen/Strep). DMSO and a suitable positive control compound, such as 80 μM GS-329467 or 10 μM 427346 was used for the 100% and 0% cell killing controls, respectively.
Hep2 cells (1.0×10^5 cells/ml) were prepared as above in batch to at least 40 mls excess of the number of sample plates (8 mls cell mix per plate) and infected with vendor supplied (ABI) RSV strain A2 to arrive at an MOI of 1:1000 (virus:cell #) or 1:3000 (vol virus:cell vol). Immediately after addition of virus, the RSV infected Hep2 cell suspension was added to each stamped 384-well plate at 20 μl per well using a uFlow dispenser, giving a final volume of 40 μL/well, each with 2000 infected cells. The plates were then incubated for 5 days at 37° C. and 5% CO2. Following incubation, the plates were equilibrated to room temperature in a biosafety cabinet hood for 1.5 hrs and 40 μL of Cell-Titer Glo viability reagent (Promega) was added to each well via uFlow. Following a 10-20 minute incubation, the plates were read using an EnVision or Victor Luminescence plate reader (Perkin-Elmer). The data was then uploaded and analyzed on the Bioinformatics portal under the RSV Cell Infectivity and 8-plate EC50-Hep2-384 or 8-plate EC50-Hep2-Envision protocols. […]

SMILES | inhibition at 0.5 µM | Percent inhibition at 0.5 μM
Cc1cn2nc([C@@H]3CCCCN3C(=O)[C@@](C)(NS(C)(=O)=O)c3ccccc3)cc2nc1N1CC[C@H](N)C1 [Compound 28] | 100% | 
Cc1cc(C2CC2)nc2cc([C@@H]3CCCCN3C(=O)c3cc(Cl)cc(F)c3NS(C)(=O)=O)nn12 [Compound 29] | 90% | 
Cc1cc(C2CC2)nc2cc([C@@H]3CCCCN3C(=O)c3cc(Cl)c(F)cc3NS(C)(=O)=O)nn12 [Compound 30] | 91% | 
Cc1cc(C2CC2)nc2cc([C@@H]3CCCCN3C(=O)c3ccc(Cl)c(F)c3NS(C)(=O)=O)nn12 [Compound 31] |  | 86%
Cc1nc2cc([C@@H]3CCCCN3C(=O)c3cc(F)cc(Cl)c3NS(C)(=O)=O)nn2c(C)c1C [Compound 32] | 85% | 
Cc1cn2nc([C@@H]3CCCCN3C(=O)C(NS(C)(=O)=O)c3ccccc3Br)cc2nc1N1CC[C@H](N)C1 (some centres unmarked) [Compound 33] | 100% | 
Cc1cn2nc([C@@H]3CCCCN3C(=O)C(NS(C)(=O)=O)c3ccccc3Cl)cc2nc1N1CC[C@H](N)C1 (some centres unmarked) [Compound 34] | 100% | 
Cc1cn2nc([C@@H]3CCCCN3C(=O)c3cc(Cl)ccc3CN=[N+]=[N-])cc2nc1N1CC[C@H](N)C1 [Compound 35] | 100% | 
Cc1cn2nc([C@@H]3CCCCN3C(=O)c3cc(Cl)ccc3CNS(C)(=O)=O)cc2nc1N1CC[C@H](N)C1 [Compound 36] | 100% | 
Cc1cn2nc([C@@H]3CCCCN3C(=O)c3cc(Cl)ccc3CN)cc2nc1N1CC[C@H](N)C1 [Compound 37] | 100% | 
Cc1cn2nc([C@@H]3CCCCN3C(=O)c3cc(Cl)ccc3NS(C)(=O)=O)cc2nc1N1CCC1C (some centres unmarked) [Compound 40] | 100% | 
C#CC1CCN(c2nc3cc([C@@H]4CCCCN4C(=O)c4cc(Cl)ccc4NS(C)(=O)=O)nn3cc2C)C1 (some centres unmarked) [Compound 41] | 100% | 
Cc1cn2nc([C@@H]3CCCCN3C(=O)c3cc(Cl)ccc3NS(C)(=O)=O)cc2nc1N1CCC12CNC2 [Compound 42] | 100% | 
CS(=O)(=O)Nc1ccc(Cl)cc1C(=O)N1CCCC[C@H]1c1cc2nc(N3CCC3)cc(N3CCNC(C#N)C3)n2n1 (some centres unmarked) [Compound 43] | 100% | 
Cc1cc(N2CC[C@H](N)C2)nc2cc([C@@H]3CCCCN3C(=O)c3cc(Cl)ccc3NS(C)(=O)=O)nn12 [Compound 44] | 100% | 
Cc1cccc(NS(C)(=O)=O)c1C(=O)N1CCCC[C@H]1c1cc2nc(C3CC3)cc(C)n2n1 [Compound 45] | 100% | 
Cc1cc(C2CC2)nc2cc([C@@H]3CCCCN3C(=O)c3ccccc3NS(C)(=O)=O)nn12 [Compound 46] | 97% | 
Cc1cc(C2CC2)nc2cc([C@@H]3CCCCN3C(=O)c3c(NS(C)(=O)=O)cccc3C(F)(F)F)nn12 [Compound 47] | 99% | 
O=C(c1ccccc1C(F)(F)F)N1CCCC[C@H]1c1cc2nc(N3CC(O)C3)cc(N3CC(O)C3)n2n1 [Compound 50] | 100% | 
Cc1ccc(NS(C)(=O)=O)c(C(=O)N2CCCC[C@H]2c2cc3nc(C)cc(C)n3n2)c1 [Compound 52] | 99% | 
CN1CCN(c2cc(N3CC(N)C3)nc3cc([C@@H]4CCCCN4C(=O)c4cc(Cl)ccc4NS(C)(=O)=O)nn23)CC1 [Compound 53] | 99% | 
O=C(c1cc(Cl)ccc1NS(=O)(=O)CC(F)(F)F)N1CCCC[C@H]1c1cc2nc(N3CCC3)cc(N3CCNCC3)n2n1 [Compound 55] | 98% | 
CS(=O)(=O)Nc1ccc(Cl)cc1C(=O)N1CCCC[C@H]1c1cc2nc(C3CNC3)cc(N3CCOCC3)n2n1 [Compound 56] | 93% | 
CS(=O)(=O)Nc1ccc(Cl)cc1C(=O)N1CCCC[C@H]1c1cc2nc(C3CCCC3)cc(N3CCOCC3)n2n1 [Compound 57] | 93% | 
Cc1nc2cc([C@@H]3CCCCN3C(=O)c3cc(F)ccc3NS(C)(=O)=O)nn2c(C)c1C [Compound 58] | 89% | 
CN1CCN(c2cc(C3CC3)nc3cc([C@@H]4CCCCN4C(=O)c4cc(Cl)ccc4NS(C)(=O)=O)nn23)CC1 [Compound 59] | 92% | 

From US10174038B2, “Compounds and methods for antiviral treatment” (Gilead Sciences, Inc., priority 2012, dated 2019)
